Test results: paper PMC11292009, “Mapping protein binding sites by photoreactive fragment pharmacophores” (Communications Chemistry, 2024)
“Also recorded” adds a separate entry of the source.

Tested on: T1, Kras G12D protein / SOS1 exchange domain
T1 construct: Cytoskeleton, Inc. (SOS1 exchange domain only) GE02
Assay: Kras-SOS exchange assay (MANT-GDP)
Type: biochemical
Conditions: for normalized signal, Kras-SOS exchange (Figure 4c PhP072 irradiation): Php072 500 uM
Method: MANT-GDP loading assay: Kras^G12D protein was first buffer exchanged into low magnesium buffer (20 mM HEPES-NaOH (pH 7.5), 50 mM NaCl, 0.5 mM MgCl2) using a NAP5 column (catalog no.: 17-0583-1, Cytiva). The proteins were then incubated with 20-fold molar excess of N-methylanthraniloyl (MANT)-GDP (catalog no.: 69244, Sigma-Aldrich) in loading buffer (50 mM NaCl, 20 mM HEPES-NaOH [pH 7.5], 0.5 mM MgCl2, 10 mM EDTA, and 1 mM Dithiothreitol (DTT)) in a total volume of 200 μL at 20 °C for 90 min. The reaction was stopped by adding MgCl2 to a final concentration of 10 mM, then incubated at 20 °C for 30 min. The unbound MANT-GDP was removed using the NAP-5 column equilibrated with nucleotide exchange buffer (40 mM HEPES-NaOH (pH 7.5), 50 mM NaCl, 10 mM MgCl2, 2 mM DTT).
MANT-GDP exchange assay: First the MANT-GDP bound Kras G12D protein (in a final 1 μM molar concentration) was preincubated with the inhibitor molecules for 60 min. After the preincubation the samples were exposed to UV light for 10 min with a wavelength of 366 nm. The UV-treated MANT-GDP Kras-inhibitor mix was loaded into a black 384 well microplate. The nucleotide exchange reaction was initiated by adding 100 fold molar excess of GppNHp (catalog no.: G0635, Sigma-Aldrich), a non-hydrolyzable GTP analog and the SOS1 exchange domain (catalog no.: GE02, Cytoskeleton, Inc.) protein in 0.5 μM final concentration. The change in fluorescence intensity was measured every 30 s in room temperature for 60 min on an EnSpire plate reader (PerkinElmer, Inc.). The measured fluorescence values were fitted to a single exponential function by using GraphPad Prism 8 software.

SMILES: Cc1ncc(CO)c(CNC(=O)CCC2(C)N=N2)c1O [PhP072, Cc1ncc(CO)c(c1O)CNC(=O)CCC2(C)N=N2]
- normalized signal, Kras-SOS exchange (Figure 4c PhP072 irradiation) (time 30 sec): 0.9874
- normalized signal, Kras-SOS exchange (Figure 4c PhP072 irradiation) (time 60 sec): 0.984
- normalized signal, Kras-SOS exchange (Figure 4c PhP072 irradiation) (time 90 sec): 0.9869
- normalized signal, Kras-SOS exchange (Figure 4c PhP072 irradiation) (time 120 sec): 0.9755
- normalized signal, Kras-SOS exchange (Figure 4c PhP072 irradiation) (time 210 sec): 0.9893
- normalized signal, Kras-SOS exchange (Figure 4c PhP072 irradiation) (time 240 sec): 1.005
- normalized signal, Kras-SOS exchange (Figure 4c PhP072 irradiation) (time 270 sec): 0.9931
- normalized signal, Kras-SOS exchange (Figure 4c PhP072 irradiation) (time 300 sec): 0.9815
- normalized signal, Kras-SOS exchange (Figure 4c PhP072 irradiation) (time 330 sec): 0.9652
- normalized signal, Kras-SOS exchange (Figure 4c PhP072 irradiation) (time 360 sec): 0.9672
- normalized signal, Kras-SOS exchange (Figure 4c PhP072 irradiation) (time 390 sec): 0.9659
- normalized signal, Kras-SOS exchange (Figure 4c PhP072 irradiation) (time 420 sec): 0.9589
- normalized signal, Kras-SOS exchange (Figure 4c PhP072 irradiation) (time 450 sec): 0.9736
- normalized signal, Kras-SOS exchange (Figure 4c PhP072 irradiation) (time 480 sec): 0.978
- normalized signal, Kras-SOS exchange (Figure 4c PhP072 irradiation) (time 510 sec): 0.9558
- normalized signal, Kras-SOS exchange (Figure 4c PhP072 irradiation) (time 540 sec): 0.9578
- normalized signal, Kras-SOS exchange (Figure 4c PhP072 irradiation) (time 570 sec): 0.9776
- normalized signal, Kras-SOS exchange (Figure 4c PhP072 irradiation) (time 600 sec): 0.972
- normalized signal, Kras-SOS exchange (Figure 4c PhP072 irradiation) (time 630 sec): 0.974
- normalized signal, Kras-SOS exchange (Figure 4c PhP072 irradiation) (time 660 sec): 0.9647
- normalized signal, Kras-SOS exchange (Figure 4c PhP072 irradiation) (time 690 sec): 0.9564
- normalized signal, Kras-SOS exchange (Figure 4c PhP072 irradiation) (time 720 sec): 0.9623
- normalized signal, Kras-SOS exchange (Figure 4c PhP072 irradiation) (time 750 sec): 0.9619
- normalized signal, Kras-SOS exchange (Figure 4c PhP072 irradiation) (time 780 sec): 0.9405
- normalized signal, Kras-SOS exchange (Figure 4c PhP072 irradiation) (time 810 sec): 0.9601
- normalized signal, Kras-SOS exchange (Figure 4c PhP072 irradiation) (time 840 sec): 0.9458
- normalized signal, Kras-SOS exchange (Figure 4c PhP072 irradiation) (time 870 sec): 0.9534
- normalized signal, Kras-SOS exchange (Figure 4c PhP072 irradiation) (time 900 sec): 0.9403
- normalized signal, Kras-SOS exchange (Figure 4c PhP072 irradiation) (time 930 sec): 0.9459
- normalized signal, Kras-SOS exchange (Figure 4c PhP072 irradiation) (time 960 sec): 0.9381
- normalized signal, Kras-SOS exchange (Figure 4c PhP072 irradiation) (time 990 sec): 0.9447
- normalized signal, Kras-SOS exchange (Figure 4c PhP072 irradiation) (time 1020 sec): 0.9591
- normalized signal, Kras-SOS exchange (Figure 4c PhP072 irradiation) (time 1050 sec): 0.9368
- normalized signal, Kras-SOS exchange (Figure 4c PhP072 irradiation) (time 1080 sec): 0.9576
- normalized signal, Kras-SOS exchange (Figure 4c PhP072 irradiation) (time 1110 sec): 0.9476
- normalized signal, Kras-SOS exchange (Figure 4c PhP072 irradiation) (time 1140 sec): 0.9304
- normalized signal, Kras-SOS exchange (Figure 4c PhP072 irradiation) (time 1170 sec): 0.9558
- normalized signal, Kras-SOS exchange (Figure 4c PhP072 irradiation) (time 1200 sec): 0.9429
- normalized signal, Kras-SOS exchange (Figure 4c PhP072 irradiation) (time 1230 sec): 0.9405
- normalized signal, Kras-SOS exchange (Figure 4c PhP072 irradiation) (time 1260 sec): 0.9391
- normalized signal, Kras-SOS exchange (Figure 4c PhP072 irradiation) (time 1290 sec): 0.9393
- normalized signal, Kras-SOS exchange (Figure 4c PhP072 irradiation) (time 1320 sec): 0.944
- normalized signal, Kras-SOS exchange (Figure 4c PhP072 irradiation) (time 1350 sec): 0.9654
- normalized signal, Kras-SOS exchange (Figure 4c PhP072 irradiation) (time 1380 sec): 0.9701
- normalized signal, Kras-SOS exchange (Figure 4c PhP072 irradiation) (time 1410 sec): 0.9426
- normalized signal, Kras-SOS exchange (Figure 4c PhP072 irradiation) (time 1440 sec): 0.9472
- normalized signal, Kras-SOS exchange (Figure 4c PhP072 irradiation) (time 1470 sec): 0.9361
- normalized signal, Kras-SOS exchange (Figure 4c PhP072 irradiation) (time 1500 sec): 0.939
- normalized signal, Kras-SOS exchange (Figure 4c PhP072 irradiation) (time 1530 sec): 0.9519
- normalized signal, Kras-SOS exchange (Figure 4c PhP072 irradiation) (time 1560 sec): 0.9436
- normalized signal, Kras-SOS exchange (Figure 4c PhP072 irradiation) (time 1590 sec): 0.9444
- normalized signal, Kras-SOS exchange (Figure 4c PhP072 irradiation) (time 1620 sec): 0.9461
- normalized signal, Kras-SOS exchange (Figure 4c PhP072 irradiation) (time 1650 sec): 0.9444
- normalized signal, Kras-SOS exchange (Figure 4c PhP072 irradiation) (time 1680 sec): 0.9402
- normalized signal, Kras-SOS exchange (Figure 4c PhP072 irradiation) (time 1710 sec): 0.948
- normalized signal, Kras-SOS exchange (Figure 4c PhP072 irradiation) (time 1740 sec): 0.9364
- normalized signal, Kras-SOS exchange (Figure 4c PhP072 irradiation) (time 1770 sec): 0.939
- normalized signal, Kras-SOS exchange (Figure 4c PhP072 irradiation) (time 1800 sec): 0.9328
- normalized signal, Kras-SOS exchange (Figure 4c PhP072 irradiation) (time 1830 sec): 0.9307
- normalized signal, Kras-SOS exchange (Figure 4c PhP072 irradiation) (time 1860 sec): 0.9265
- normalized signal, Kras-SOS exchange (Figure 4c PhP072 irradiation) (time 1890 sec): 0.9579
- normalized signal, Kras-SOS exchange (Figure 4c PhP072 irradiation) (time 1920 sec): 0.9312
- normalized signal, Kras-SOS exchange (Figure 4c PhP072 irradiation) (time 1950 sec): 0.9362
- normalized signal, Kras-SOS exchange (Figure 4c PhP072 irradiation) (time 1980 sec): 0.9324
- normalized signal, Kras-SOS exchange (Figure 4c PhP072 irradiation) (time 2010 sec): 0.9475
- normalized signal, Kras-SOS exchange (Figure 4c PhP072 irradiation) (time 2040 sec): 0.9452
- normalized signal, Kras-SOS exchange (Figure 4c PhP072 irradiation) (time 2070 sec): 0.9435
- normalized signal, Kras-SOS exchange (Figure 4c PhP072 irradiation) (time 2100 sec): 0.9537
- normalized signal, Kras-SOS exchange (Figure 4c PhP072 irradiation) (time 2130 sec): 0.9458
- normalized signal, Kras-SOS exchange (Figure 4c PhP072 irradiation) (time 2160 sec): 0.9297
- normalized signal, Kras-SOS exchange (Figure 4c PhP072 irradiation) (time 2190 sec): 0.9168
- normalized signal, Kras-SOS exchange (Figure 4c PhP072 irradiation) (time 2220 sec): 0.941
- normalized signal, Kras-SOS exchange (Figure 4c PhP072 irradiation) (time 2250 sec): 0.934
- normalized signal, Kras-SOS exchange (Figure 4c PhP072 irradiation) (time 2280 sec): 0.9076
- normalized signal, Kras-SOS exchange (Figure 4c PhP072 irradiation) (time 2310 sec): 0.9404
- normalized signal, Kras-SOS exchange (Figure 4c PhP072 irradiation) (time 2340 sec): 0.9263
- normalized signal, Kras-SOS exchange (Figure 4c PhP072 irradiation) (time 2370 sec): 0.9501
- normalized signal, Kras-SOS exchange (Figure 4c PhP072 irradiation) (time 2400 sec): 0.9106
- normalized signal, Kras-SOS exchange (Figure 4c PhP072 irradiation) (time 2430 sec): 0.9173
- normalized signal, Kras-SOS exchange (Figure 4c PhP072 irradiation) (time 2460 sec): 0.928
- normalized signal, Kras-SOS exchange (Figure 4c PhP072 irradiation) (time 2490 sec): 0.9153
- normalized signal, Kras-SOS exchange (Figure 4c PhP072 irradiation) (time 2520 sec): 0.9464
- normalized signal, Kras-SOS exchange (Figure 4c PhP072 irradiation) (time 2550 sec): 0.9246
- normalized signal, Kras-SOS exchange (Figure 4c PhP072 irradiation) (time 2580 sec): 0.9142
- normalized signal, Kras-SOS exchange (Figure 4c PhP072 irradiation) (time 2910 sec): 0.92
- normalized signal, Kras-SOS exchange (Figure 4c PhP072 irradiation) (time 2940 sec): 0.9177
- normalized signal, Kras-SOS exchange (Figure 4c PhP072 irradiation) (time 2970 sec): 0.9062
- normalized signal, Kras-SOS exchange (Figure 4c PhP072 irradiation) (time 3000 sec): 0.928
- normalized signal, Kras-SOS exchange (Figure 4c PhP072 irradiation) (time 3030 sec): 0.9131
- normalized signal, Kras-SOS exchange (Figure 4c PhP072 irradiation) (time 3060 sec): 0.9065
- normalized signal, Kras-SOS exchange (Figure 4c PhP072 irradiation) (time 3090 sec): 0.9086
- normalized signal, Kras-SOS exchange (Figure 4c PhP072 irradiation) (time 3120 sec): 0.9109
- normalized signal, Kras-SOS exchange (Figure 4c PhP072 irradiation) (time 3150 sec): 0.9207
- normalized signal, Kras-SOS exchange (Figure 4c PhP072 irradiation) (time 3180 sec): 0.8921
- normalized signal, Kras-SOS exchange (Figure 4c PhP072 irradiation) (time 3210 sec): 0.9129
- normalized signal, Kras-SOS exchange (Figure 4c PhP072 irradiation) (time 3240 sec): 0.8834
- normalized signal, Kras-SOS exchange (Figure 4c PhP072 irradiation) (time 3270 sec): 0.9149
- normalized signal, Kras-SOS exchange (Figure 4c PhP072 irradiation) (time 3300 sec): 0.9074
- normalized signal, Kras-SOS exchange (Figure 4c PhP072 irradiation) (time 3330 sec): 0.9207
- Effect on SOS1-mediated nucleotide exchange of KRas (prior to irradiation): little effect
- Effect on SOS1-mediated nucleotide exchange of KRas (upon irradiation (366 nm, 10 min)): fully restores KRas function to the control level; also recorded: restore KRas function
